Source: patent US20120035112A1, “NEURONAL DIFFERENTIATION-INDUCING PEPTIDE AND USE THEREOF” (Toagosei Co., Ltd., priority 2009, published 2012)

Tested on: mouse neuronal stem cells
Assay: Evaluation of neuronal differentiation-inducing activities of synthesized peptides (β3-tubulin fluorescence antibody method, DAPI nuclear stain)
Type: cell-based
Settings: peptide 0.5 μM, 7 days culture in mouse neuronal stem cell growth medium; compared with positive control (differentiation medium, FIG. 16)
Protocol: The neuronal differentiation-inducing activities of the synthesized peptides obtained in Example 1 (Samples 1 to 15) were examined.
That is, the sample peptide was added to a culture broth of neuronal stem cells collected from a mouse (mouse neuronal stem cell growth medium, a product of Cell Applications), and incubated. Addition was carried out to a concentration of 0.5 μM for each peptide.
Next, once 7 days had elapsed following peptide addition, each of the cultured cells was nuclear stained with DAPI (4′,6-diamidino-2-phenylindole) and examined with a fluorescence microscope. In addition, evaluation with a neuronal differentiation induction marker was carried out on the same samples. That is, using tubulin (specifically, β3-tubulin) as the marker for identifying neurons (nerve cells), the presence of tubulin (i.e., the presence or absence of neurons) within the culture solution was checked by a fluorescence antibody method using a fluorochrome-labeled anti-tubulin antibody for tubulin identification. The number of each figure corresponds to the number of the sample peptide used.
Each of these figures is a fluorescence micrograph (image) obtained by examining the state of neuronal differentiation by mouse neuronal stem cells following addition of the respective sample peptides and 7 days of culturing. The image was prepared by merging a DIC image, a DAPI nuclear stain image, and a fluorescence image showing the results of an investigation by an immune antibody method using fluorochrome-labeled anti-tubulin antibody.
(§1) As a positive control, mouse neuronal stem cells were cultured in a mouse neuronal stem cell differentiation medium (product of Cell Applications) without adding any of the peptides. When 7 days had elapsed following the start of culturing, treatment and fluorescence microscopic examination were carried out in the same way as described above.
as §1, with “negative” for “positive”, “[…]” for “differentiation”

Sequence	neuronal differentiation-inducing activity
LLLLAAWTARAGKKRTLRKNDRKKR [Sample 2]	particularly high neuronal differentiation-inducing activities
LLLLAAWTVRAGKKRTLRKNDRKKR [Sample 8]	particularly high neuronal differentiation-inducing activities
LALLLLAAWTVRAGKKRTLRKNDRKKR [Sample 6]	particularly high neuronal differentiation-inducing activities
ALLLLAAWTVRAGKKRTLRKNDRKKR [Sample 7]	particularly high neuronal differentiation-inducing activities
